Laboratory results reported in PMC12073679, “Drug Repurposing to Inhibit Oncostatin M in Crohn’s Disease” (Molecules, 2025).

Target: T1, recombinant human oncostatin M (Homo sapiens, UniProt P13725)
T1 construct: gene OSM; labelled with RED-NHS 2nd generation dye for MST
T1 sequence (P13725 26-221): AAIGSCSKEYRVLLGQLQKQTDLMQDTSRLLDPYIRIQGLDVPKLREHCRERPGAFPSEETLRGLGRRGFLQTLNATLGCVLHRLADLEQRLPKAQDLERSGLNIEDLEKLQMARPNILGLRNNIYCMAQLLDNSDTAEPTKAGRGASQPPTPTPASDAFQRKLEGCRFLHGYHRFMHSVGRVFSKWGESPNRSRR
Assay: microscale thermophoresis
Format: binding

- Kd: 11.4 ± 2.83 µM
SMILES: CC1(C)[C@@H]2CC[C@@]1(CS(=O)(=O)O)C(=O)/C2=C/c1ccc(/C=C2/C(=O)[C@]3(CS(=O)(=O)O)CC[C@H]2C3(C)C)cc1 [1a, Ecamsule]
